From the OligoGym collection
Where “and” joins values, the source holds several entries; their conditions need not be identical. Equal values may be shown once. After the bases stand the sugars from the 5' end (letter, count) and the backbone: PS all phosphorothioate, else s phosphorothioate and o phosphodiester by linkage. Methylation of C is not given here. e = 2'-O-(2-methoxyethyl) (MOE); k = constrained ethyl (cEt); d = 2'-deoxy (DNA)

Assays:
SOD1 = conditions: ASO
MALAT1 = conditions: ASO, A431, 0.005 µM

Row | Sequence | target mRNA inhibition (MALAT1) | other results
1 | AAAATACAGGTCATTGA (sugars e3 k2 d7 k2 e3, PS) |  | target mRNA inhibition (SOD1; HepG2, 3 µM): 28%
2 | AAACAGACATTTTAACTGAG (sugars e5 d10 e5, PS) |  | target mRNA inhibition (SOD1; HepG2, 5 µM): 4%
3 | AAACTATACAAATCTTC (sugars e2 k2 d9 k2 e2, PS) |  | target mRNA inhibition (SOD1; HepG2, 5 µM): 55%
4 | AAATCTTCCAAGTGATC (sugars e2 k2 d8 k2 e3, PS) |  | target mRNA inhibition (SOD1; HepG2, 5 µM): 46%
5 | AAGAAATTCTGACAAGT (sugars e3 k2 d7 k2 e3, PS) |  | target mRNA inhibition (SOD1; HepG2, 3 µM): 18%
6 | AAGTCACACAATTACAC (sugars e2 k2 d8 k2 e3, PS) |  | target mRNA inhibition (SOD1; HepG2, 5 µM): 41%
7 | AAGTGATCATAAATCAGTTT (sugars e5 d10 e5, PS) |  | target mRNA inhibition (SOD1; HepG2, 4 µM): 86%; target mRNA inhibition (SOD1; HepG2, 5 µM): 8%; target mRNA inhibition (SOD1; HepG2, 12 µM): 96%
8 | AAGTTTAATACCCATCT (sugars e3 k2 d7 k2 e3, PS) |  | target mRNA inhibition (SOD1; HepG2, 3 µM): 12%
9 | AATAAGTGCCATACAGG (sugars e2 k2 d9 k2 e2, PS) |  | target mRNA inhibition (SOD1; HepG2, 5 µM): 36%
10 | AATAGCCTCATAATAAG (sugars e2 k2 d9 k2 e2, PS) |  | target mRNA inhibition (SOD1; HepG2, 5 µM): 25%
11 | TCCAGTCCCTGAAGGT (sugars k3 d10 k3, PS) | 12% | 
12 | TCCCATAACTGATCTG (sugars k3 d10 k3, PS) | 31% | 
13 | TCCCATCACTGAAGCC (sugars k3 d10 k3, PS) | 44% | 
14 | TCCCCAATGGAGGTAT (sugars k3 d10 k3, PS) | 9% | 
15 | TCCCCCCCAAGATTGC (sugars k3 d10 k3, PS) | -3% | 
16 | TCCCCCCCGCCTCAGT (sugars k3 d10 k3, PS) | 16% | 
17 | TCCCCTTCAAGCACCG (sugars k3 d10 k3, PS) | 19% | 
18 | TCCTCAATCCACTTGA (sugars k3 d10 k3, PS) | 44% | 
19 | TCCTCCGTGTGGTTGC (sugars k3 d10 k3, PS) | 18% | 
20 | TCCTTATTTAGAGGGC (sugars k3 d10 k3, PS) | 29% | 
21 | TCCTTCTATAGTCTGA (sugars k3 d10 k3, PS) | 14% | 
22 | TCGCCTCCTCCGTGTG (sugars k3 d10 k3, PS) | 33% | 
23 | TCGGTGCCTTTAGTGA (sugars k3 d10 k3, PS) | 29% | 

Row | Sequence | target mRNA inhibition (MALAT1) | other results
24 | TCGGTTAAAAATAGGT (sugars k3 d10 k3, PS) | 16% | 
25 | TCTAACATAGTTCAAC (sugars k3 d10 k3, PS) | 29% | 
26 | TCTATAGTCTGAAGAA (sugars k3 d10 k3, PS) | 26% | 
27 | TCTCCCACCTGTCTAA (sugars k3 d10 k3, PS) | 23% | 
28 | TCTGAACCGGAGCAGG (sugars k3 d10 k3, PS) | 19% | 
29 | TCTGACTTTGTATGTA (sugars k3 d10 k3, PS) | 48% | 
30 | TCTGATAACGAAGAGA (sugars k3 d10 k3, PS) | 21% | 
31 | TCTGCGGCCCCCCAGT (sugars k3 d10 k3, PS) | 25% | 
32 | TCTTACTGGGTCTGGC (sugars k3 d10 k3, PS) | 45% | 
33 | TCTTCGGTTAAAAATA (sugars k3 d10 k3, PS) | 19% | 
34 | TCTTGAAGACTGTTGC (sugars k3 d10 k3, PS) | 44% | 
35 | TGAACCCCGTCCTGGA (sugars k3 d10 k3, PS) | 3% | 
36 | TGAAGTGTACTATCCC (sugars k3 d10 k3, PS) | 72% and 88% | 
37 | TGAATTACTTCCGTTA (sugars k3 d10 k3, PS) | 36% | 
38 | TGAATTCAACTGGAAG (sugars k3 d10 k3, PS) | 36% | 
39 | TGACCCTACTGAAGAG (sugars k3 d10 k3, PS) | 21% | 
40 | TGACGCAATTCTCCCT (sugars k3 d10 k3, PS) | 33% | 
41 | TGAGAACTGCTCTAGT (sugars k3 d10 k3, PS) | 35% | 
42 | TGAGATGGACATTGCC (sugars k3 d10 k3, PS) | 74% and 92% | 
43 | TGAGTGTTCCTGCATG (sugars k3 d10 k3, PS) | 36% | 
44 | TGATCCCAACTCATCT (sugars k3 d10 k3, PS) | 14% | 
45 | TGCAAGGTCTCATACA (sugars k3 d10 k3, PS) | 32% | 
46 | TGCACTCGCTCCTTCC (sugars k3 d10 k3, PS) | 33% | 

Row | Sequence | target mRNA inhibition (MALAT1) | other results
47 | TGCATCGAGGTGAGGG (sugars k3 d10 k3, PS) | 21% | 
48 | TGCCAATATTTGCCCC (sugars k3 d10 k3, PS) | 20% | 
49 | TGCCATGGTTGATATT (sugars k3 d10 k3, PS) | 37% | 
50 | TGCCCAAATTAATGCA (sugars k3 d10 k3, PS) | 29% | 
51 | TGCCCTTAGCTTTTTG (sugars k3 d10 k3, PS) | 56% | 
52 | TGCCGACCTCACGGAT (sugars k3 d10 k3, PS) | 24% | 
53 | TGCCTACCACTCTAAG (sugars k3 d10 k3, PS) | -10% | 
54 | TGCCTTTAGGATTCTA (sugars k3 d10 k3, PS) | 45% | 
55 | TGCCTTTAGGATTCTAGACA (sugars e5 d10 e5, PS) | 39% and 51% | 
56 | TGCGCTGGCTGCCTCA (sugars k3 d10 k3, PS) | 25% | 
57 | TGCGGTTTCCTCAAGC (sugars k3 d10 k3, PS) | 26% | 
58 | TGCTACTCTTCTAAGT (sugars k3 d10 k3, PS) | 19% | 
59 | TGCTGATAAACTCACT (sugars k3 d10 k3, PS) | 46% | 
60 | TGGAAGCTCCTTCTAT (sugars k3 d10 k3, PS) | -19% | 
61 | TGGACATTGCCTCTTC (sugars k3 d10 k3, PS) | 29% | 
62 | TGGCATATGCAGATAA (sugars k3 d10 k3, PS) | 69% and 89% | 
63 | TGGCGATGTGGCAGAG (sugars k3 d10 k3, PS) | 35% | 
64 | TGGTACACCCAGTGGC (sugars k3 d10 k3, PS) | 17% | 
65 | TGTAAAACATTGCCTA (sugars k3 d10 k3, PS) | -7% | 
66 | TGTAGTTAATGTCAGC (sugars k3 d10 k3, PS) | 67% and 42% | 
67 | TGTCAATTAATGCTAG (sugars k3 d10 k3, PS) | 42% | 
68 | TGTGATAGTTCAGGGC (sugars k3 d10 k3, PS) | -12% | 
69 | TGTTCGAGAAATCGGA (sugars k3 d10 k3, PS) | 17% | 

Row | Sequence | target mRNA inhibition (MALAT1) | other results
70 | TTAAAAAGGCTCGATG (sugars k3 d10 k3, PS) | 21% | 
71 | TTAAATGACGCAATTC (sugars k3 d10 k3, PS) | 4% | 
72 | TTAAATTACACCAGTC (sugars k3 d10 k3, PS) | 50% and 65% | 
73 | TTAAATTGATGGGCTT (sugars k3 d10 k3, PS) | 22% | 
74 | TTAAGAGAAGCCCAGG (sugars k3 d10 k3, PS) | 24% | 
75 | TTAATCACCTTCGGTT (sugars k3 d10 k3, PS) | 27% | 
76 | TTAATGTAGTGTAACA (sugars k3 d10 k3, PS) | 30% | 
77 | TTACAAAACGAATTCA (sugars k3 d10 k3, PS) | 10% | 
78 | TTACACCAGTCCTTTT (sugars k3 d10 k3, PS) | 37% | 
79 | TTACACCTCAGTACGA (sugars k3 d10 k3, PS) | 15% | 
80 | TTACGAAAGTCCTTCA (sugars k3 d10 k3, PS) | 28% | 
81 | TTACTTTCCATTACGC (sugars k3 d10 k3, PS) | 16% | 
82 | TTAGAGAAGAATCCCC (sugars k3 d10 k3, PS) | 31% | 
83 | TTAGAGGGCCTCTATT (sugars k3 d10 k3, PS) | 3% | 
84 | TTATATTAGGTTCTCG (sugars k3 d10 k3, PS) | -6% | 
85 | TTATCCCTAACATGCA (sugars k3 d10 k3, PS) | 8% | 
86 | TTATGGAACTTGAATG (sugars k3 d10 k3, PS) | 7% | 
87 | TTATTCCAGGATTAAT (sugars k3 d10 k3, PS) | -5% | 
88 | TTCAACTGGGAATACT (sugars k3 d10 k3, PS) | 17% | 
89 | TTCCCTATATAAGGTC (sugars k3 d10 k3, PS) | 6% | 
90 | TTCCGCCGCCTCTTAA (sugars k3 d10 k3, PS) | 22% | 
91 | TTCCGCTAAGATGCTA (sugars k3 d10 k3, PS) | 9% | 
92 | TTCCGTTACGAAAGTC (sugars k3 d10 k3, PS) | 33% | 

Row | Sequence | target mRNA inhibition (MALAT1) | other results
93 | TTCCTAGCTTCACCAC (sugars k3 d10 k3, PS) | 36% | 
94 | TTCCTTATTTAGAGGG (sugars k3 d10 k3, PS) | 14% | 
95 | TTCCTTTCATAGAGCC (sugars k3 d10 k3, PS) | 70% and 88% | 
96 | TTCGCAGACAAAGTTT (sugars k3 d10 k3, PS) | 22% | 
97 | TTCTACCGTTTTTCAG (sugars k3 d10 k3, PS) | 10% | 
98 | TTGAAACCGATTATGG (sugars k3 d10 k3, PS) | 42% | 
99 | TTGACAAGCAATTAAC (sugars k3 d10 k3, PS) | 7% | 
100 | TTGAGGCAAGTCCTCA (sugars k3 d10 k3, PS) | 3% | 
101 | TTGAGGGACAGTAGGT (sugars k3 d10 k3, PS) | 21% | 
102 | TTGCCCCTCCCCTTTA (sugars k3 d10 k3, PS) | 42% | 
103 | TTGCTTACACACAACT (sugars k3 d10 k3, PS) | 18% | 
104 | TTGGCCTACTCAAGCT (sugars k3 d10 k3, PS) | -8% | 
105 | TTTACAGAAGTCTCGG (sugars k3 d10 k3, PS) | -31% | 
106 | TTTAGAGGGCCTCTAT (sugars k3 d10 k3, PS) | 17% | 
107 | TTTAGGATTCTAGACA (sugars k3 d10 k3, PS) | 25% | 
108 | TTTATAGACGGAGAAC (sugars k3 d10 k3, PS) | -6% | 
109 | TTTGAGTATGCTGATA (sugars k3 d10 k3, PS) | 47% | 
110 | TTTTTGTGGTTATAGC (sugars k3 d10 k3, PS) | 75% and 88% | 
111 | TTTTTGTTCGAGAAAT (sugars k3 d10 k3, PS) | -7% | 
